Reference: PubChem BioAssay (NCI)
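Grown in 96-well plates, cells were treated for 48 hours with each compound at five concentrations. Insufficient inhibition: endpoint recorded as highest concentration tested. TGI marks complete inhibition of growth.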

Assays:
Assay in all cases: inhibition of tumour cell growth, NCI panel, 48 h
786-0 renal = tested on: 786-0 renal
A498 renal = tested on: A498 renal
A549 NSCLC = tested on: A549 NSCLC
ACHN renal = tested on: ACHN renal
BT-549 breast = tested on: BT-549 breast
CAKI-1 renal = tested on: CAKI-1 renal
CCRF-CEM leukemia = tested on: CCRF-CEM leukemia
COLO 205 colon = tested on: COLO 205 colon
DU-145 prostate = tested on: DU-145 prostate
EKVX NSCLC = tested on: EKVX NSCLC
HCC-2998 colon = tested on: HCC-2998 colon
HCT-116 colon = tested on: HCT-116 colon
HCT-15 colon = tested on: HCT-15 colon
HOP-62 NSCLC = tested on: HOP-62 NSCLC
HOP-92 NSCLC = tested on: HOP-92 NSCLC
HS 578T breast = tested on: HS 578T breast
HT29 colon = tested on: HT29 colon
IGROV1 ovarian = tested on: IGROV1 ovarian
K-562 leukemia = tested on: K-562 leukemia
KM12 colon = tested on: KM12 colon
LOX IMVI melanoma = tested on: LOX IMVI melanoma
M14 melanoma = tested on: M14 melanoma
MALME-3M melanoma = tested on: MALME-3M melanoma
MCF7 breast = tested on: MCF7 breast
MDA-MB-231 breast = tested on: MDA-MB-231 breast
MDA-MB-435 = tested on: MDA-MB-435
MDA-N = tested on: MDA-N
MOLT-4 leukemia = tested on: MOLT-4 leukemia
NCI-H226 lung = tested on: NCI-H226 lung
NCI-H23 lung = tested on: NCI-H23 lung
NCI-H460 lung = tested on: NCI-H460 lung
NCI-H522 lung = tested on: NCI-H522 lung
NCI/ADR-RES ovarian = tested on: NCI/ADR-RES ovarian
OVCAR-3 ovarian = tested on: OVCAR-3 ovarian
OVCAR-4 ovarian = tested on: OVCAR-4 ovarian
OVCAR-5 ovarian = tested on: OVCAR-5 ovarian
OVCAR-8 ovarian = tested on: OVCAR-8 ovarian
PC-3 prostate = tested on: PC-3 prostate
RPMI-8226 leukemia = tested on: RPMI-8226 leukemia
RXF 393 renal = tested on: RXF 393 renal
SF-268 CNS = tested on: SF-268 CNS
SF-295 CNS = tested on: SF-295 CNS
SF-539 CNS = tested on: SF-539 CNS
SK-MEL-2 melanoma = tested on: SK-MEL-2 melanoma
SK-MEL-28 melanoma = tested on: SK-MEL-28 melanoma
SK-MEL-5 melanoma = tested on: SK-MEL-5 melanoma
SK-OV-3 ovarian = tested on: SK-OV-3 ovarian
SN12C renal = tested on: SN12C renal
SNB-19 CNS = tested on: SNB-19 CNS
SNB-75 CNS = tested on: SNB-75 CNS
SR leukemia = tested on: SR leukemia
SW-620 colon = tested on: SW-620 colon
T-47D breast = tested on: T-47D breast
TK-10 renal = tested on: TK-10 renal
U251 CNS = tested on: U251 CNS
UACC-257 melanoma = tested on: UACC-257 melanoma
UO-31 renal = tested on: UO-31 renal
UACC-62 melanoma = tested on: UACC-62 melanoma

N#Cc1nc(/C=C/c2ccccc2)oc1N
TGI (786-0 renal): > 100 µM
TGI (A498 renal): > 100 µM
TGI (A549 NSCLC): > 100 µM
TGI (ACHN renal): > 100 µM
TGI (BT-549 breast): > 100 µM
TGI (CAKI-1 renal): > 100 µM
TGI (CCRF-CEM leukemia): > 100 µM
TGI (COLO 205 colon): > 100 µM
TGI (DU-145 prostate): > 100 µM
TGI (EKVX NSCLC): > 100 µM
TGI (HCC-2998 colon): > 100 µM
TGI (HCT-116 colon): > 100 µM
TGI (HCT-15 colon): > 100 µM
TGI (HOP-62 NSCLC): > 100 µM
TGI (HOP-92 NSCLC): > 100 µM
TGI (HS 578T breast): > 100 µM
TGI (HT29 colon): > 100 µM
TGI (IGROV1 ovarian): > 100 µM
TGI (K-562 leukemia): > 100 µM
TGI (KM12 colon): > 100 µM
TGI (LOX IMVI melanoma): > 100 µM
TGI (M14 melanoma): > 100 µM
TGI (MALME-3M melanoma): > 100 µM
TGI (MCF7 breast): > 100 µM
TGI (MDA-MB-231 breast): > 100 µM
TGI (MDA-MB-435): > 100 µM
TGI (MDA-N): > 100 µM
TGI (MOLT-4 leukemia): > 100 µM
TGI (NCI-H226 lung): > 100 µM
TGI (NCI-H23 lung): > 100 µM
TGI (NCI-H460 lung): > 100 µM
TGI (NCI-H522 lung): > 100 µM
TGI (NCI/ADR-RES ovarian): > 100 µM
TGI (OVCAR-3 ovarian): > 100 µM
TGI (OVCAR-4 ovarian): > 100 µM
TGI (OVCAR-5 ovarian): > 100 µM
TGI (OVCAR-8 ovarian): > 100 µM
TGI (PC-3 prostate): > 100 µM
TGI (RPMI-8226 leukemia): > 100 µM
TGI (RXF 393 renal): > 100 µM
TGI (SF-268 CNS): > 100 µM
TGI (SF-295 CNS): > 100 µM
TGI (SF-539 CNS): > 100 µM
TGI (SK-MEL-2 melanoma): > 100 µM
TGI (SK-MEL-28 melanoma): > 100 µM
TGI (SK-MEL-5 melanoma): > 100 µM
TGI (SK-OV-3 ovarian): > 100 µM
TGI (SN12C renal): > 100 µM
TGI (SNB-19 CNS): > 100 µM
TGI (SNB-75 CNS): > 100 µM
TGI (SR leukemia): 2.9 µM
TGI (SW-620 colon): > 100 µM
TGI (T-47D breast): > 100 µM
TGI (TK-10 renal): > 100 µM
TGI (U251 CNS): > 100 µM
TGI (UACC-257 melanoma): > 100 µM
TGI (UO-31 renal): > 100 µM

C/C=C\C(CC(=O)NCCC1CN(C(=O)c2ccccc2)c2ccccc21)CC(=O)OC (centres undefined)
TGI (786-0 renal): > 100 µM
TGI (A498 renal): > 100 µM
TGI (A549 NSCLC): > 100 µM
TGI (ACHN renal): > 100 µM
TGI (BT-549 breast): > 100 µM
TGI (CAKI-1 renal): > 100 µM
TGI (COLO 205 colon): > 100 µM
TGI (DU-145 prostate): > 100 µM
TGI (EKVX NSCLC): > 100 µM
TGI (HCC-2998 colon): > 100 µM
TGI (HCT-116 colon): > 100 µM
TGI (HCT-15 colon): > 100 µM
TGI (HOP-62 NSCLC): > 100 µM
TGI (HOP-92 NSCLC): > 100 µM
TGI (HS 578T breast): > 100 µM
TGI (HT29 colon): > 100 µM
TGI (IGROV1 ovarian): > 100 µM
TGI (K-562 leukemia): > 100 µM
TGI (KM12 colon): > 100 µM
TGI (M14 melanoma): > 100 µM
TGI (MALME-3M melanoma): > 100 µM
TGI (MCF7 breast): > 100 µM
TGI (MDA-MB-231 breast): > 100 µM
TGI (MDA-MB-435): > 100 µM
TGI (MDA-N): > 100 µM
TGI (MOLT-4 leukemia): > 100 µM
TGI (NCI-H23 lung): > 100 µM
TGI (NCI-H460 lung): > 100 µM
TGI (NCI-H522 lung): > 100 µM
TGI (NCI/ADR-RES ovarian): > 100 µM
TGI (OVCAR-3 ovarian): > 100 µM
TGI (OVCAR-4 ovarian): > 100 µM
TGI (OVCAR-5 ovarian): > 100 µM
TGI (OVCAR-8 ovarian): > 100 µM
TGI (PC-3 prostate): > 100 µM
TGI (RPMI-8226 leukemia): > 100 µM
TGI (RXF 393 renal): > 100 µM
TGI (SF-268 CNS): > 100 µM
TGI (SF-295 CNS): > 100 µM
TGI (SK-MEL-2 melanoma): > 100 µM
TGI (SK-MEL-28 melanoma): > 100 µM
TGI (SK-MEL-5 melanoma): > 100 µM
TGI (SK-OV-3 ovarian): > 100 µM
TGI (SNB-19 CNS): > 100 µM
TGI (SNB-75 CNS): > 100 µM
TGI (SW-620 colon): > 100 µM
TGI (T-47D breast): > 100 µM
TGI (TK-10 renal): > 100 µM
TGI (U251 CNS): > 100 µM
TGI (UACC-257 melanoma): > 100 µM
TGI (UACC-62 melanoma): > 100 µM
TGI (UO-31 renal): > 100 µM

Cc1nnc2sc(N/N=C/c3ccccc3)nn12
TGI (786-0 renal): > 100 µM
TGI (A498 renal): > 100 µM
TGI (A549 NSCLC): > 100 µM
TGI (ACHN renal): > 100 µM
TGI (BT-549 breast): > 100 µM
TGI (CAKI-1 renal): > 100 µM
TGI (CCRF-CEM leukemia): > 100 µM
TGI (COLO 205 colon): > 100 µM
TGI (DU-145 prostate): > 100 µM
TGI (EKVX NSCLC): > 100 µM
TGI (HCT-116 colon): > 100 µM
TGI (HCT-15 colon): > 100 µM
TGI (HOP-62 NSCLC): > 100 µM
TGI (HS 578T breast): > 100 µM
TGI (HT29 colon): > 100 µM
TGI (IGROV1 ovarian): > 100 µM
TGI (K-562 leukemia): > 100 µM
TGI (KM12 colon): > 100 µM
TGI (LOX IMVI melanoma): > 100 µM
TGI (M14 melanoma): > 100 µM
TGI (MALME-3M melanoma): > 100 µM
TGI (MCF7 breast): > 100 µM
TGI (MDA-MB-231 breast): > 100 µM
TGI (MDA-MB-435): > 100 µM
TGI (MDA-N): > 100 µM
TGI (MOLT-4 leukemia): > 100 µM
TGI (NCI-H226 lung): > 100 µM
TGI (NCI-H23 lung): > 100 µM
TGI (NCI-H460 lung): > 100 µM
TGI (NCI-H522 lung): > 100 µM
TGI (NCI/ADR-RES ovarian): > 100 µM
TGI (OVCAR-3 ovarian): > 100 µM
TGI (OVCAR-4 ovarian): > 100 µM
TGI (OVCAR-5 ovarian): > 100 µM
TGI (OVCAR-8 ovarian): > 100 µM
TGI (PC-3 prostate): > 100 µM
TGI (RPMI-8226 leukemia): > 100 µM
TGI (RXF 393 renal): > 100 µM
TGI (SF-268 CNS): > 100 µM
TGI (SF-295 CNS): > 100 µM
TGI (SF-539 CNS): > 100 µM
TGI (SK-MEL-2 melanoma): > 100 µM
TGI (SK-MEL-28 melanoma): > 100 µM
TGI (SK-MEL-5 melanoma): > 100 µM
TGI (SK-OV-3 ovarian): 88.1 µM
TGI (SN12C renal): > 100 µM
TGI (SNB-19 CNS): > 100 µM
TGI (SNB-75 CNS): > 100 µM
TGI (SW-620 colon): > 100 µM
TGI (T-47D breast): > 100 µM
TGI (TK-10 renal): > 100 µM
TGI (U251 CNS): > 100 µM
TGI (UACC-257 melanoma): > 100 µM
TGI (UACC-62 melanoma): > 100 µM
TGI (UO-31 renal): > 100 µM
